Where two headings read alike, the source gives them in different places.
Columns and labels:
[1] = system: HCC1954 (BRCA1 WT) cell line; test: Viability assay in BRCA1 WT cell line HCC1954; format: cell-based; details: read-out: HCC 1954 IC50 rel IC50
Text: (§1) Table 1 also indicates IC50 values in a viability assay for a non-isogenic pair of BRCA1 mutant (column 5—MDA-MB-436) and BRCA1 WT (column 6—HCC1954) cell lines. These values indicate the effect of treatment with compound on cell survival.

monoubiquitinated PCNA = test: AlphaLISA assay measuring monoubiquitinated PCNA in MDA-MB-436; format: cell-based; details: read-out: Alpha LISA IC50
Text: Table 1 also indicates IC50 values for exemplary compounds in an AlphaLISA assay measuring monoubiquitinated PCNA in a BRCA1 mutant cell line (MDA-MB-436; column 7).

USP1-UAF1 = USP1-UAF1 (Homo sapiens, UniProt O94782); test: Ubiquitin Rhodamine assay for USP1-UAF1 activity; format: biochemical
Experimental: Certain compounds of the disclosure were assessed for USP1-UAF1 activity in a Ubiquitin Rhodamine assay as described in Example 135.

[2] = system: MDA-MB-436 (BRCA1 mutant) cell line; test: Viability assay in BRCA1 mutant cell line MDA-MB-436; format: cell-based; details: BRCA1 mutant MDA-MB-436, read-out: MDA-MB-436 rel IC50
Text: as §1

[3] = Homo sapiens, MDA-MB-436, viability

Sequence of USP1-UAF1 (O94782 whole entry): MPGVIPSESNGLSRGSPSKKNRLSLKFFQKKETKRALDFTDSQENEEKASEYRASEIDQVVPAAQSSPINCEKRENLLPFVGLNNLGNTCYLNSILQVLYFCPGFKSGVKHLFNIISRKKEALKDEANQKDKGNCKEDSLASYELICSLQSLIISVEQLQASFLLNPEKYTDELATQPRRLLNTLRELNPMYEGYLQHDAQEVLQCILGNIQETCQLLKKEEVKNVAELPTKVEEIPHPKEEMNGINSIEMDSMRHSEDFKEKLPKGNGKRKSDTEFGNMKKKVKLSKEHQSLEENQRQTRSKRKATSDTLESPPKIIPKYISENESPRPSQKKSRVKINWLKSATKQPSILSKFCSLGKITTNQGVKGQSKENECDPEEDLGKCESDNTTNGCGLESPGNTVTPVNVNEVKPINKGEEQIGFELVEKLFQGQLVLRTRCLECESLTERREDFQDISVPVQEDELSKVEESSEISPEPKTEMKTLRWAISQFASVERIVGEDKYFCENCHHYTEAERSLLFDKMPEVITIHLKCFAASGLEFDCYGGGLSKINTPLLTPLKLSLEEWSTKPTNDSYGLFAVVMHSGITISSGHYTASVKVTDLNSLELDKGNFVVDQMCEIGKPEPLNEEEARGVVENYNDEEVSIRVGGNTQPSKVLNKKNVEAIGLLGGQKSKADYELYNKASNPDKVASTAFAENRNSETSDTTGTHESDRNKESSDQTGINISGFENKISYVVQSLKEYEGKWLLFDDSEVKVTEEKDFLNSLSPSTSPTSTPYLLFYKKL
Sequence of USP1-UAF1 (Q8TAF3 whole entry partner): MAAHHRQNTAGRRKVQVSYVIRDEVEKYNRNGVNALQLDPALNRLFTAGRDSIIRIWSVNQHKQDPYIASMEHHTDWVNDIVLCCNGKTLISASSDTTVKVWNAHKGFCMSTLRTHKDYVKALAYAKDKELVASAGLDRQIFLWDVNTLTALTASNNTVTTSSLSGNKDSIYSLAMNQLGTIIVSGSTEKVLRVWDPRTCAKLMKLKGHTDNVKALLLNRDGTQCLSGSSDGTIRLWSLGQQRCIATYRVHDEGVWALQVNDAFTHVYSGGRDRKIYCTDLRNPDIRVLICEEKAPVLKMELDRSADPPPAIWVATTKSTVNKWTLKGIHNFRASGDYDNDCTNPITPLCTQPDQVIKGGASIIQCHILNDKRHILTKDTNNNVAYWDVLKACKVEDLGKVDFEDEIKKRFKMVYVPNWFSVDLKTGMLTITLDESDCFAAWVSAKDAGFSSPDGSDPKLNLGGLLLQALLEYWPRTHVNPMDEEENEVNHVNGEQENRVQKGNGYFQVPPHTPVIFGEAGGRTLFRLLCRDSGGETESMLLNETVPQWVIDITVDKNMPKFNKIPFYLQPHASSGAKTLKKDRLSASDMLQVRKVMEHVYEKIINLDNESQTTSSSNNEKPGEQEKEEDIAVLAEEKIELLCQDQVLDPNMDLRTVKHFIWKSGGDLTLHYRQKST

Compound: C[C@@H](Oc1ncccc1-c1ncc2[nH]cc(Cc3ccc(-c4nc(C(F)(F)F)cn4C)cc3)c2n1)C(F)(F)F (single isomer, unassigned) [Compound 21]
- IC50 ([1]; Homo sapiens): 250 to 10000 nM
- IC50 (monoubiquitinated PCNA; Homo sapiens): < 100 nM
- IC50 (USP1-UAF1): < 30 nM
- IC50 [2, 3]: < 100 nM

Compound: C[C@H](Oc1ncccc1-c1ncc2[nH]cc(Cc3ccc(-c4nc(C(F)(F)F)cn4C)cc3)c2n1)C(F)(F)F (single isomer, unassigned) [Compound 51]
- IC50 ([1]; Homo sapiens): 250 to 10000 nM
- IC50 (monoubiquitinated PCNA; Homo sapiens): < 100 nM
- IC50 (USP1-UAF1): < 30 nM
- IC50 [2, 3]: < 100 nM

Compound: CC(C)c1ccccc1-c1ncc2[nH]cc([C@H](C)c3ccc(-c4nc(C(F)(F)F)cn4C)cc3)c2n1 (single isomer, unassigned) [Compound 64]
- IC50 ([1]; Homo sapiens): 250 to 10000 nM
- IC50 (monoubiquitinated PCNA; Homo sapiens): < 100 nM
- IC50 (USP1-UAF1): < 30 nM
- IC50 [2, 3]: < 100 nM

Compound: Cn1cc(C(F)(F)F)nc1-c1ccc([C@@](C)(O)c2c[nH]c3cnc(-c4cccnc4OCC(F)(F)F)nc23)cc1 (single isomer, unassigned) [Compound 74]
- IC50 ([1]; Homo sapiens): 250 to 10000 nM
- IC50 (monoubiquitinated PCNA; Homo sapiens): 100 to 250 nM
- IC50 (USP1-UAF1): < 30 nM
- IC50 [2, 3]: 250 to 10000 nM

Compound: CC(C)c1ccccc1-c1ncc2[nH]cc([C@@H](C)c3ccc(-c4nc(C(F)(F)F)cn4C)cc3)c2n1 (single isomer, unassigned) [Compound 82]
- IC50 ([1]; Homo sapiens): 250 to 10000 nM
- IC50 (monoubiquitinated PCNA; Homo sapiens): < 100 nM
- IC50 (USP1-UAF1): < 30 nM
- IC50 [2, 3]: < 100 nM

Compound: COc1ncnc(C2CC2)c1-c1ncc2[nH]cc(C(C)c3ccc(-c4nc(C(F)(F)F)cn4C)cc3)c2n1 (single isomer, unassigned) [Compound 89]
- IC50 ([1]; Homo sapiens): 250 to 10000 nM
- IC50 (monoubiquitinated PCNA; Homo sapiens): < 100 nM
- IC50 (USP1-UAF1): < 30 nM
- IC50 [2, 3]: < 100 nM

Compound: COc1ncnc(C2CC2)c1-c1ncc2c(n1)c(Cc1ccc(-c3nc(C(F)(F)F)cn3C)cc1)nn2C(C)C (single isomer, unassigned) [Compound 98, 5-(4-cyclopropyl-6-methoxy-pyrimidin-5-yl)-1-isopropyl-3-[[4-[1-methyl-4-(trifluoromethyl)imidazol-2-yl]phenyl]methyl]pyrazolo[4,3-d]pyrimidine]
- IC50 ([1]; Homo sapiens): ≥ 10000 nM
- IC50 (monoubiquitinated PCNA; Homo sapiens): < 100 nM
- IC50 (USP1-UAF1): 30 to 100 nM
- IC50 [2, 3]: < 100 nM

Compound: Cn1cc(C(F)(F)F)nc1-c1ccc(C(O)c2c[nH]c3cnc(-c4c(OC(F)F)ncnc4C4CC4)nc23)cc1 (single isomer, unassigned) [Compound 103]
- IC50 ([1]; Homo sapiens): ≥ 10000 nM
- IC50 (monoubiquitinated PCNA; Homo sapiens): < 100 nM
- IC50 (USP1-UAF1): 30 to 100 nM
- IC50 [2, 3]: < 100 nM

Compound: COc1ncnc(C2CC2)c1-c1ncc2nn(C(C)C)c(Cc3ccc(-c4nc(C(F)(F)F)cn4C)cc3)c2n1 (single isomer, unassigned) [Compound 104, 5-(4-cyclopropyl-6-methoxy-pyrimidin-5-yl)-2-isopropyl-3-[[4-[1-methyl-4-(trifluoromethyl)imidazol-2-yl]phenyl]methyl]pyrazolo[4,3-d]pyrimidine]
- IC50 ([1]; Homo sapiens): ≥ 10000 nM
- IC50 (monoubiquitinated PCNA; Homo sapiens): 100 to 250 nM
- IC50 (USP1-UAF1): 100 to 10000 nM
- IC50 [2, 3]: 100 to 250 nM

Compound: Cn1cc(C(F)(F)F)nc1-c1ccc(C(O)c2c[nH]c3cnc(-c4c(OC(F)F)ncnc4C4CC4)nc23)cc1 (single isomer, unassigned) [Compound 141]
- IC50 [1]: ≥ 10000 nM
- IC50 (monoubiquitinated PCNA): < 100 nM
- IC50 (USP1-UAF1): < 30 nM
- IC50 ([2]; viability): < 100 nM

Compound: COc1ncnc(C2CC2)c1-c1ncc2[nH]cc([C@@H](c3ccc(-c4nc(C(F)(F)F)cn4C)cc3)C(C)C)c2n1 (single isomer, unassigned) [Compound 151]
- IC50 ([1]; Homo sapiens): 250 to 10000 nM
- IC50 (monoubiquitinated PCNA; Homo sapiens): < 100 nM
- IC50 (USP1-UAF1): 30 to 100 nM
- IC50 [2, 3]: 100 to 250 nM

Compound: CC(C)c1ccccc1-c1ncc2[nH]cc(C(O)c3ccc(-c4nc(C(F)(F)F)cn4C)cc3)c2n1 (stereo not drawn) [Compound 1, [2-(2-isopropylphenyl)-5H-pyrrolo[3,2-d]pyrimidin-7-yl]-[4-[1-methyl-4-(trifluoromethyl)imidazol-2-yl]phenyl]methanol]
- IC50 ([1]; Homo sapiens): ≥ 10000 nM
- IC50 (monoubiquitinated PCNA; Homo sapiens): < 100 nM
- IC50 (USP1-UAF1): 30 to 100 nM
- IC50 [2, 3]: < 100 nM

Compound: CC(C)c1ccccc1-c1ncc2[nH]cc(Oc3ccc(-c4nc(C(F)(F)F)cn4C)cc3)c2n1 [Compound 2, 2-(2-isopropylphenyl)-7-[4-[1-methyl-4-(trifluoromethyl)imidazol-2-yl]phenoxy]-5H-pyrrolo[3,2-d]pyrimidine]
- IC50 ([1]; Homo sapiens): ≥ 10000 nM
- IC50 (monoubiquitinated PCNA; Homo sapiens): < 100 nM
- IC50 (USP1-UAF1): 30 to 100 nM
- IC50 [2, 3]: 100 to 250 nM

Compound: CC(C)c1ccccc1-c1ncc2[nH]cc(Cc3ccc(-c4nc(C(F)(F)F)cn4C)cc3)c2n1 [Compound 10, 2-(2-isopropylphenyl)-7-[[4-[1-methyl-4-(trifluoromethyl)imidazol-2-yl]phenyl]methyl]-5H-pyrrolo[3,2-d]pyrimidine]
- IC50 ([1]; Homo sapiens): ≥ 10000 nM
- IC50 (monoubiquitinated PCNA; Homo sapiens): < 100 nM
- IC50 (USP1-UAF1): < 30 nM
- IC50 [2, 3]: < 100 nM

Compound: COc1ncccc1-c1ncc2[nH]cc(Cc3ccc(-c4nc(C(F)(F)F)cn4C)cc3)c2n1 [Compound 11, 2-(2-methoxy-3-pyridyl)-7-[[4-[1-methyl-4-(trifluoromethyl)imidazol-2-yl]phenyl]methyl]-5H-pyrrolo[3,2-d]pyrimidine]
- IC50 ([1]; Homo sapiens): ≥ 10000 nM
- IC50 (monoubiquitinated PCNA; Homo sapiens): 100 to 250 nM
- IC50 (USP1-UAF1): 30 to 100 nM
- IC50 [2, 3]: 250 to 10000 nM

Compound: Cn1cc(C(F)(F)F)nc1-c1ccc(Nc2c[nH]c3cnc(-c4ccccc4C4CC4)nc23)cc1 [Compound 12, 2-(2-cyclopropylphenyl)-N-[4-[1-methyl-4-(trifluoromethyl)imidazol-2-yl]phenyl]-5H-pyrrolo[3,2-d]pyrimidin-7-amine]
- IC50 ([1]; Homo sapiens): 250 to 10000 nM
- IC50 (monoubiquitinated PCNA; Homo sapiens): 250 to 10000 nM
- IC50 (USP1-UAF1): 100 to 10000 nM
- IC50 [2, 3]: 250 to 10000 nM

Compound: CC(C)c1ccccc1-c1cc2c(Oc3ccc(-c4nc(C(F)(F)F)cn4C)cc3)c[nH]c2cn1 [Compound 14, 5-(2-isopropylphenyl)-3-[4-[1-methyl-4-(trifluoromethyl)imidazol-2-yl]phenoxy]-1H-pyrrolo[2,3-c]pyridine]
- IC50 ([1]; Homo sapiens): ≥ 10000 nM
- IC50 (monoubiquitinated PCNA; Homo sapiens): < 100 nM
- IC50 (USP1-UAF1): < 30 nM
- IC50 [2, 3]: < 100 nM

Compound: CCn1cc(C(F)(F)F)nc1-c1ccc(Cc2c[nH]c3cnc(-c4c(OC)ncnc4C4CC4)nc23)cc1 [Compound 15]
- IC50 ([1]; Homo sapiens): ≥ 10000 nM
- IC50 (monoubiquitinated PCNA; Homo sapiens): 100 to 250 nM
- IC50 (USP1-UAF1): < 30 nM
- IC50 [2, 3]: < 100 nM

Compound: CC(C)c1ccccc1-c1cc2c(Nc3ccc(-c4nc(C(F)(F)F)cn4C)cc3)c[nH]c2cn1 [Compound 17]
- IC50 ([1]; Homo sapiens): 250 to 10000 nM
- IC50 (monoubiquitinated PCNA; Homo sapiens): < 100 nM
- IC50 (USP1-UAF1): 100 to 10000 nM
- IC50 [2, 3]: 250 to 10000 nM

Compound: COc1ncnc(C2CC2)c1-c1ncc2[nH]cc(Cc3ccc(-c4nc(C(F)(F)F)cn4C4CN(C)C4)cc3)c2n1 [Compound 18, 2-(4-cyclopropyl-6-methoxypyrimidin-5-yl)-7-(4-(1-(1-methylazetidin-3-yl)-4-(trifluoromethyl)-1H-imidazol-2-yl)benzyl)-5H-pyrrolo[3,2-d]pyrimidine]
- IC50 ([1]; Homo sapiens): ≥ 10000 nM
- IC50 (monoubiquitinated PCNA; Homo sapiens): 100 to 250 nM
- IC50 (USP1-UAF1): 100 to 10000 nM
- IC50 [2, 3]: 100 to 250 nM

Compound: CN1CC(n2cc(C(F)(F)F)nc2-c2ccc(Cc3c[nH]c4cnc(-c5cccnc5OC(F)F)nc34)cc2)C1 [Compound 20, 2-[2-(difluoromethoxy)-3-pyridyl]-7-[[4-[1-(1-methylazetidin-3-yl)-4-(trifluoromethyl)imidazol-2-yl]phenyl]methyl]-5H-pyrrolo[3,2-d]pyrimidine]
- IC50 ([1]; Homo sapiens): ≥ 10000 nM
- IC50 (monoubiquitinated PCNA; Homo sapiens): < 100 nM
- IC50 (USP1-UAF1): 100 to 10000 nM
- IC50 [2, 3]: 100 to 250 nM
